Values of other authors in US20060193787A1, “Nanoparticle-based drug delivery system” (priority 2005, published 2006).

Details: oral delivery

Bioavailability: less than 1%
Structure (SMILES): CC(=O)O[C@H]1C(=O)[C@@]2(C)[C@H]([C@H](OC(=O)c3ccccc3)[C@]3(O)C[C@H](OC(=O)[C@H](O)[C@@H](NC(=O)c4ccccc4)c4ccccc4)C(C)=C1C3(C)C)[C@]1(OC(C)=O)CO[C@@H]1C[C@@H]2O [paclitaxel]
